Laboratory results reported in patent US7276492B2, “Use of ACE inhibitors for treatment of patients suffering from behavioral disorders” (priority 2000, dated 2007).

What was measured:
[1] = tested on: temper, rage and outburst behavior disorder (TROBD); test: Example 1: lisinopril regimen in a patient suffering from TROBD; assay type: in vivo, human; details: for relief of TROBD by prior treatments: prior treatments of the same patient, before lisinopril
Excerpt: The TROBD was an endogenous behavioral disorder. […] When confined to their room, the patient would act out with banging and stomping. Episodes were accompanied by physiological changes including dilation of pupils, expressionless face and a rise in blood pressure.
With lisinopril medication as noted above over a period of about four weeks, definite changes in behavior were evident. […] At home, they retreated from a situation triggering the event to their room, where they remained quiet.
Each of the three episodes occurred at school. In one episode, the patient was working on a computer and refused to give up their work station when their allotted time had been used up. […] A second episode was triggered when the patient was asked to make up a class they had missed. They refused to go to the class but voluntarily moved themself to a “cooling room” to allow their temper to subside. They again, when so instructed, walked to the school office without being physically coerced. In a third episode, the patient was asked to leave the classroom because they would not stop talking during a quiet time. In this case, there was a limited degree of acting out in that, while sitting in a chair, they kicked a desk which was knocked over. They then allowed themself to be escorted by police officers to the school office without being physically coerced. In the office, they kicked another desk and was taken by ambulance to a children's hospital for evaluation.

central nervous system = details: of the persons treated; cited from earlier work
[2] = under treatment, approximately two and one-half months

SMILES: C[C@H](N)Cc1ccccc1 [dextroamphetamine]
- relief of TROBD by prior treatments [1]: ineffective to provide adequate relief

SMILES: CCOC(=O)[C@H](CCc1ccccc1)N[C@@H](C)C(=O)N1CCC[C@H]1C(=O)O [enalapril]
- incidence of dream abnormality (central nervous system): less than one

SMILES: CCC(=O)O[C@@H](O[P@](=O)(CCCCc1ccccc1)CC(=O)N1C[C@H](C2CCCCC2)C[C@H]1C(=O)O)C(C)C [fosinopril]
- incidence of behavior change (central nervous system): less than one
- incidence of memory disturbance (central nervous system): less than one
- incidence of mood change (central nervous system): less than one

SMILES: NCCCC[C@H](N[C@@H](CCc1ccccc1)C(=O)O)C(=O)N1CCC[C@H]1C(=O)O [lisinopril]
- violent outburst during episodes ([1]; lisinopril 10 mg per day oral, about four weeks): without violent outburst
- duration of episodes of rage and/or violent behavior ([1]; lisinopril 10 mg per day oral, about four weeks, prior to medication approximately twenty minutes per episode): five to ten
- frequency of episodes ([1]; lisinopril 10 mg per day oral, about four weeks, prior to medication two to four episodes per week): approximately one
- blood pressure during the three most marked temper-related episodes [1, 2]: 128/64
- degree of violence in episodes compared to behavior prior to treatment [1, 2]: significantly reduced
- dilation of pupils [1, 2]: no noticeable dilation of pupils

SMILES: COC(=O)C(c1ccccc1)C1CCCCN1 (stereo not shown) [methylphenidate]
- relief of TROBD by prior treatments [1]: ineffective to provide adequate relief

SMILES: CCOC(=O)[C@H](CCc1ccccc1)N[C@@H](C)C(=O)N1Cc2cc(OC)c(OC)cc2C[C@H]1C(=O)O [moexipril]
- incidence of mood change (central nervous system): less than one
